Where a name gives a salt, the structure may show the parent alone.
System: rats with bladder outlet obstruction
Experiment: Effect on premicturition contraction in rats with bladder outlet obstruction
Assay type: in vivo
Conditions: iv; for inhibition of the premicturition contraction frequency (single use, ground for dose setting): 0.3 mg(/mL)/kg for the acetanilide compound, 0.001 mg(/mL)/kg for the sulfonamide hydrochloride; for ratio of the premicturition contraction frequency relative to the pre-administration value: drug A 0.3 mg/mL/kg, drug B 0.001 mg/mL/kg, AB combination at both doses, first micturition reflex after administration, 5 animals per group; for significant inhibition of the premicturition contraction (frequency): single use at 0.3 mg/kg or 0.001 mg/kg, or both combined, combination compared to any other groups
Protocol: The rats were fixed to a dorsal position under pentobarbital anesthesia (50 mg/kg ip), and a catheter (PE-20) was inserted into the bladder from the external urethral orifice. A midline incision was made in the lower abdominal wall, and the proximal urethra, together with the catheter, was tied at two sites with a silk suture (5-0), then, the catheter was removed and the surgical wound was sutured, and then ampicillin (150 mg/kg sc) as an antibiotic was administered to the animals which were then housed in a breeding cage. On the 11th to 12th day after the surgery, a midline incision was made in the lower abdominal wall under pentobarbital anesthesia (50 mg/kg ip), and the silk sutures tying the urethra were removed. The bladder was exposed, followed by drainage of urine, and a catheter (PE-50) was inserted into the bladder from the apical part the bladder and fixed. The other end of this catheter was lead to the outside from the posterior cervical region and then the surgical wound was sutured. In addition, a catheter (PE-50) for the drug administration was inserted into the jugular vein, and then the other end thereof was lead to the outside from the posterior cervical region. Ampicillin (150 mg/kg sc) was administered to the animals which were then returned to a breeding cage. Two to three days later, the rats were retained in a Bollman cage. The catheter inserted into the bladder was connected to a three-way stopcock valve, and one end was connected to a syringe pump (STC-525) and micturition reflex was induced by continuous infusion of physiological saline [3.6 to 12 mL/h (adjusted to achieve a voiding interval of 20 to 40 minutes)]. In addition, the other end was connected to a pressure transducer (TP-400T), and intravesical pressure was measured with a pressure amplifier (AP-601G). The premicturition contraction frequency [evaluated for 10 minutes prior to micturition reflex (maximum intravesical pressure); a contraction showing a drop of 1 cmH2O or more after a rise of 2 cmH2O or more was evaluated as one time] after the stabilization of micturition reflex by continuous infusion of physiological saline for 2 hours or more was taken as a pre-administration value. Vehicle or each drug was intravenously administered after intravesical pressure was lowered to a baseline, and the premicturition contraction frequency in the first micturition reflex was taken as a post-administration value, and evaluated by a ratio (%) relative to the pre-administration value. Drugs for the four groups examined are as follows. Evaluation was carried out using 5 animals for each group.

SMILES: Nc1nc(CC(=O)Nc2ccc(CCNC[C@H](O)c3ccccc3)cc2)cs1 [drug A, (R)-2-(2-aminothiazol-4-yl)-4′-{2-[(2-hydroxy-2-phenylethyl)amino]ethyl}acetanilide]
- inhibition of the premicturition contraction frequency (single use, ground for dose setting): about 15%
- ratio of the premicturition contraction frequency relative to the pre-administration value: 85.0%
- significant inhibition of the premicturition contraction (frequency): not recognized

SMILES: CCOc1ccccc1OCCN[C@H](C)Cc1ccc(OC)c(S(N)(=O)=O)c1 [drug B, (R)-5-(2-{[2-(2-ethoxyphenoxy)ethyl]amino}propyl)-2-methoxybenzene-1-sulfonamide hydrochloride]
- inhibition of the premicturition contraction frequency (single use, ground for dose setting): about 15%
- ratio of the premicturition contraction frequency relative to the pre-administration value: 84.8%
- significant inhibition of the premicturition contraction (frequency): not recognized

From patent US20100261770A1, “PHARMACEUTICAL COMPOSITION FOR IMPROVING LOWER URINARY TRACT SYMPTOMS” (ASTELLAS PHARMA INC., priority 2007, published 2010)
